Test results taken from ChEMBL document CHEMBL5233279, “d-Mannose binding, aggregation property, and antifungal activity of amide derivatives of pradimicin A” (Bioorg Med Chem, 2021).
In brackets after ≈: the same amount, converted by molar mass.

What was measured:
[1] = Binding affinity to methyl alpha-D-mannopyranoside (unknown origin) in MPOS buffer at pH 7.0 assessed as secondary dissociation constant (Kd2) by ITC experiment
[2] = Aggregation property of the compound in MPOS buffer at pH 7.0 assessed as compound remaining in supernatant incubated for 15 mins at 37 degreeC followed by 30 mins incubation at room temperature by HPLC based sedimentation assay relative to control; format: physicochemical; set-up: concentration or dose not given beside the values; details: pH 7, 0.75 h, time 45 min
[3] = Binding affinity to methyl alpha-D-mannopyranoside (unknown origin) in MPOS buffer at pH 7.0 assessed as primary dissociation constant (Kd1) by ITC experiment
[4] = system: Diutina rugosa; test: Antifungal activity against Candida rugosa AJ14513 assessed as inhibition of fungal growth incubated for 48 hrs; format: functional
[5] = Aggregation property of the compound in MPOS buffer at pH 7.0 assessed as compound remaining in supernatant at 1 mM incubated for 15 mins at 37 degreeC followed by 30 mins incubation at room temperature by HPLC based sedimentation assay relative to control; format: physicochemical; details: pH 7, 0.75 h, 1000 µM, time 45 min
[6] = Binding affinity to D-mannose (unknown origin) in MPOS buffer at pH 7.0 assessed as primary dissociation constant (Kd1) by ITC experiment
[7] = Binding affinity to D-mannose (unknown origin) in MPOS buffer at pH 7.0 assessed as secondary dissociation constant (Kd2) by ITC experiment
[8] = Aggregation property of the compound in MPOS buffer at pH 7.0 incubated for 15 mins at 37 degreeC followed by 30 mins incubation at room temperature by HPLC based sedimentation assay; format: physicochemical; details: pH 7, 0.75 h, time 45 min

Row | SMILES | Kd [1] [mM] | Activity [2] [%] | Kd [3] [mM] | MIC [4] [µg/mL] | Activity [5] [%] | Kd [6] [mM] | Kd [7] [mM] | Activity [8]
1 | CN[C@@H]1[C@H](O[C@@H]2OC[C@@H](O)[C@H](O)[C@H]2O)[C@@H](O)[C@H](O[C@H]2c3cc(C)c(C(=O)N[C@H](C)C(=O)NOC)c(O)c3-c3c(cc4c(c3O)C(=O)c3cc(OC)cc(O)c3C4=O)[C@@H]2O)O[C@@H]1C | 5.3 | 65 | 0.36 | 16 (≈ 18.4 µM) |  |  |  | 
2 | CN[C@@H]1[C@H](O[C@@H]2OC[C@@H](O)[C@H](O)[C@H]2O)[C@@H](O)[C@H](O[C@H]2c3cc(C)c(C(=O)N[C@H](C)C(=O)N(C)OC)c(O)c3-c3c(cc4c(c3O)C(=O)c3cc(OC)cc(O)c3C4=O)[C@@H]2O)O[C@@H]1C | 5.2 | 65 | 0.34 | 16 (≈ 18.1 µM) |  |  |  | 
3 | CN[C@@H]1[C@H](O[C@@H]2OC[C@@H](O)[C@H](O)[C@H]2O)[C@@H](O)[C@H](O[C@H]2c3cc(C)c(C(=O)N[C@H](C)C(=O)NO)c(O)c3-c3c(cc4c(c3O)C(=O)c3cc(OC)cc(O)c3C4=O)[C@@H]2O)O[C@@H]1C | 4.3 | 65 | 0.075 | 8 (≈ 9.35 µM) |  | 0.1 | 5.5 | 
4 | CN[C@@H]1[C@H](O[C@@H]2OC[C@@H](O)[C@H](O)[C@H]2O)[C@@H](O)[C@H](O[C@H]2c3cc(C)c(C(=O)N[C@H](C)C(=O)NN)c(O)c3-c3c(cc4c(c3O)C(=O)c3cc(OC)cc(O)c3C4=O)[C@@H]2O)O[C@@H]1C | 9.8 | 65 | 0.3 | 16 (≈ 18.7 µM) |  |  |  | 
5 | CN[C@@H]1[C@H](O[C@@H]2OC[C@@H](O)[C@H](O)[C@H]2O)[C@@H](O)[C@H](O[C@H]2c3cc(C)c(C(=O)N[C@H](C)C(=O)NCCO)c(O)c3-c3c(cc4c(c3O)C(=O)c3cc(OC)cc(O)c3C4=O)[C@@H]2O)O[C@@H]1C |  |  |  | 16 (≈ 18.1 µM) |  |  |  | 
6 | CN[C@@H]1[C@H](O[C@@H]2OC[C@@H](O)[C@H](O)[C@H]2O)[C@@H](O)[C@H](O[C@H]2c3cc(C)c(C(=O)N[C@H](C)C(=O)O)c(O)c3-c3c(cc4c(c3O)C(=O)c3cc(OC)cc(O)c3C4=O)[C@@H]2O)O[C@@H]1C [PRADIMICIN A] | 3.8 |  | 0.096 | 4 (≈ 4.76 µM) |  |  |  | Active

Results, then the compound that gave them:

Row | Kd [1] [mM] | Activity [2] [%] | Kd [3] [mM] | MIC [4] [µg/mL] | Activity [5] [%] | Kd [6] [mM] | Kd [7] [mM] | Activity [8] | SMILES
7 | 6.5 |  | 0.86 | 16 (≈ 18.7 µM) | > 60 |  |  |  | CNC(=O)[C@@H](C)NC(=O)c1c(C)cc2c(c1O)-c1c(cc3c(c1O)C(=O)c1cc(OC)cc(O)c1C3=O)[C@H](O)[C@H]2O[C@@H]1O[C@H](C)[C@H](NC)[C@H](O[C@@H]2OC[C@@H](O)[C@H](O)[C@H]2O)[C@H]1O
8 | 5.5 |  | 0.22 | 16 (≈ 19.1 µM) | > 60 |  |  |  | CN[C@@H]1[C@H](O[C@@H]2OC[C@@H](O)[C@H](O)[C@H]2O)[C@@H](O)[C@H](O[C@H]2c3cc(C)c(C(=O)N[C@H](C)C(N)=O)c(O)c3-c3c(cc4c(c3O)C(=O)c3cc(OC)cc(O)c3C4=O)[C@@H]2O)O[C@@H]1C
9 | 3.5 | 65 | 0.18 | 16 (≈ 18.4 µM) |  |  |  |  | CN[C@@H]1[C@H](O[C@@H]2OC[C@@H](O)[C@H](O)[C@H]2O)[C@@H](O)[C@H](O[C@H]2c3cc(C)c(C(=O)N[C@H](C)C(=O)N(C)O)c(O)c3-c3c(cc4c(c3O)C(=O)c3cc(OC)cc(O)c3C4=O)[C@@H]2O)O[C@@H]1C
